Source: patent publication US10731187B2, “Recombinant strain producing O-aminobenzoate and fermentative production of aniline from renewable resources via 2-aminobenzoic acid” (Covestro Deutschland AG, priority 2014, dated 2020)

What was measured:
[1] = cited from earlier work
[2] = molecular target: T1, E. coli TrpEG (anthranilate synthase) variant TrpEGS40R, mutation S40R (SEQ ID NO: 52; SEQ ID No. 50-51) (Escherichia coli, UniProt P00895); test: Anthranilate synthase activity in cell lysate of C. glutamicum ΔtrpD/pEKEx2-trpEG^S40R (KM and vmax); type: biochemical; settings: raw extract (cell lysate), 25 °C, 20 mM L-glutamine, 10 mM MgCl2
T1 construct: S40R lies in TrpE
Text: In more specific embodiments of the recombinant microbial host cell of invention, the Corynebacterium glutamicum microbial host cell, preferably Corynebacterium glutamicum ATCC 13032, can further overexpress one or more of the genes selected from the group consisting of galP (SEQ ID NO: 30), iolT2 (SEQ ID NO: 31), ppgk (SEQ ID NO: 32), pps (SEQ ID NO: 33-35), ppk (SEQ ID NO: 36), zwfl (SEQ ID NO: 37), opcA (SEQ ID NO: 38-39), tktCg (SEQ ID NO: 40), tktEc (SEQ ID NO: 41), talCg (SEQ ID NO: 42), tame (SEQ ID NO: 43), a gene encoding TrpEGS38F (trpEG^S38F, SEQ ID NO: 50), a gene encoding TrpEGS38R (trpEG^S38R, SEQ ID NO: 51), a gene encoding TrpEGS40R (trpEG^S40R, SEQ ID NO: 52), a gene encoding TrpEGS40F (trpEG^S40F, SEQ ID NO: 53), the gene encoding AroGD146N (aroG^D146N, SEQ ID NO: 55), aroL of Escherichia coli LJ110 (SEQ ID NO: 93), aroK (SEQ ID NO: 94), glnA (SEQ ID NO: 95), and qsuA (SEQ ID NO: 96). […]

[3] = system: Corynebacterium glutamicum; test: Growth (OD600) in shake flask cultures supplemented with toxic substances; type: cell-based, Corynebacterium glutamicum DSM 20300 (=ATCC 13032); settings: 3 g/L, pH 7 (MOPS), 25 h
Text: (§1) Several strains commonly used industrial biotechnology were investigated regarding their natural tolerance towards oAB and to organic solvents in question for later product extraction (e.g. 1-dodecanol or octanol). Furthermore, the influence of the used pH value was investigated. It was known from previous experiments that at least for E. coli the toxicity of aromatic compounds depends strongly on the pH value, probably because protonated acids can much more efficiently penetrate the cell membrane and accordingly their toxicity rises severely. The extraction of oAB in an organic phase is supposed to work best at low pH values, close to the isoelectric point of oAB. The most relevant host strains considered were: Escherichia coli K12, Corynebacterium glutamicum DSM 20300 (=ATCC 13032), Pseudomonas putida KT2440, Bacillus subtilis subsp. 168, Saccharomyces cerevisiae DSM 70449, and Pichia pastoris X33 (DSM 70382).
(§2) To investigate the chosen strains towards the mentioned characteristics shake flasks and small scale fermentation experiments were performed and the organisms were supplemented with the toxic substances (aminobenzoates, solvents) at differed concentrations, different pH values, and the behaviour of the strains was studied. […]

P. putida = test: Shake flask growth (OD600) with supplementation of toxic substances; type: cell-based, Pseudomonas putida KT2440; settings: after octanol addition, pH 7, shake flask
Text: as §1, §2

all organisms = test: Toxicity of the extraction solvent octanol, shake flask growth; type: cell-based; settings: 0.1 g/L and 3 g/L octanol
Text: as §1, §2

E. coli = test: Shake flask growth (OD600) with supplementation of toxic substances; type: cell-based, Escherichia coli K12; settings: 3 g/L pAB, pH 7, shake flask
Text: as §1, §2

Question: For `CCCCCCCCCCCCO` [1-dodecanol], which miscibility in water ([1]; 1-dodecanol) is on record?
Answer: 0.004 g/L

Question: Which Vmax [2] does the source give for `C=C(O[C@@H]1C=C(C(=O)O)C=C[C@H]1O)C(=O)O` [chorismate] here?
Answer: 317.9 mU/mg

Question: Which growth inhibition [3] does the source give for `Nc1ccccc1C(=O)O` [oAB, o-aminobenzoate] here?
Answer: growth was not inhibited

Question: Which “growth (OD600)” value (P. putida) does the source give for `CCCCCCCCO` [octanol] here?
Answer: minor growth activity

Question: What about the solubility in water ([1]; octanol) of the same compound?
Answer: about 0.1 g/L

Question: What about the “growth (OD600)” value (all organisms) of the same compound?
Answer: unable to grow

Question: For `Nc1ccc(C(=O)O)cc1` [pAB, 4-aminobenzoate, reference compound], which “growth (OD600)” value (E. coli) is on record?
Answer: not inhibited
